Measurements reported in patent publication US20240092739A1, “COMPOUNDS AND METHODS OF USE” (Ferro Therapeutics, Inc, priority 2020, published 2024).

Key:
[1] = tested on: 786-O (renal cell carcinoma) cells; experiment: Cell proliferation (Alamar Blue) assay, 786-O cells; type: cell-based; conditions: Homo sapiens, 786-0; 786-O cells, 24 h compound treatment, Alamar Blue; read-out: IC50 (μM) 786-O
Procedure: (§1) Cell viability assay was performed to assess the potency of the compounds in human cancer cell lines 786-0 (renal cell carcinoma) and SJSA-1 (osteosarcoma). Additional cell lines, such as pancreatic cancer cell lines (Panc 02.13, BxPC-3, Panc 12, Panc 02.03, Panc 6.03, PSN-1, HPAC, and Capan-1), prostate cancer cell lines (PC-3, DU145, […], NCI-H660, 1PH1 LNCaP, BM-1604, and MDA PCa 2b), etc., can be tested in a similar method.
(§2) Cells (SJSA-1, 786-0 and A431) were seeded (5000 cells/100 μL/well) in 96-well tissue culture plate and incubated at 37° C./500 CO2 for 16-24 hours. The cells were then treated with compounds (25 μL of 5×). The compound concentrations were 10-0.0005 μM prepared in 3-fold serial dilutions with final DMSO concentration of 1%. The plates were then incubated for 24 h at 37° C./[…] in a moist environment. Then Alamar Blue™ reagent (final concentration 1×-12.5 μL) was added to each well and incubated for 1.5 hours at 37° C./500 CO2. The plates were read on fluorescence reader at 540 nm excitation and 590 nm emission wavelengths. The IC50 values were subsequently determined using a sigmoidal dose-response curve (variable slope) in GraphPad Prism® 5 software. Tables A-3 and B-11 show cell proliferation data for exemplary compounds as described herein.

[2] = tested on: A431 cells; experiment: Cell proliferation (Alamar Blue) assay, A431 cells; type: cell-based; conditions: Homo sapiens, A-431; A431 cells, 24 h compound treatment, Alamar Blue; read-out: IC50 (μM) A431
Procedure: as §1, §2

## C#CC(=O)N1[C@@H](CCCC)Cc2cc(OC)ccc2[C@@H]1c1ccc(NC23CC4CC(CC(C4)C2)C3)c(C#N)c1 [Compound B-8]
[1]
  IC50: 0.021 µM

## C#CC(=O)N1[C@@H](CCCC)Cc2cc(OC)ccc2[C@@H]1c1ccc(N2CCC(F)(F)C2)cc1 [Compound B-14]
[1]
  IC50: 0.06 µM
[2]
  IC50: > 1 µM

## C#CC(=O)N1CCc2cc(OC)ccc2C1c1ccccc1 (stereo not drawn) [Compound B-24]
[1]
  IC50: 0.198 µM
[2]
  IC50: 3.5 µM

## C#CC(=O)N1CCc2cc(OC)ccc2C1c1ccc(F)cc1 (stereo not drawn) [Compound B-26]
[1]
  IC50: 0.395 µM
[2]
  IC50: > 10 µM

## C#CC(=O)N1CCc2cc(OC)ccc2C1c1ccc(C#N)cc1 (stereo not drawn) [Compound B-28]
[1]
  IC50: 0.18 µM
[2]
  IC50: 7.5 µM

## C#CC(=O)N1[C@@H](CCCC)Cc2cc(OC)ccc2[C@@H]1c1ccccc1 [Compound B-29]
[1]
  IC50: 0.037 µM
[2]
  IC50: 8.73 µM

## C#CC(=O)N1[C@@H](CCCC)Cc2cc(OC)ccc2[C@@H]1c1ccc(C#N)cc1 [Compound B-31]
[1]
  IC50: 0.016 µM
[2]
  IC50: 3.67 µM

## C#CC(=O)N1[C@@H](c2ccc(C#N)cc2)c2ccc(OC)cc2C[C@@H]1C [Compound B-32, 4-[(1S,3S)-6-methoxy-3-methyl-2-(prop-2-ynoyl)-1,2,3,4-tetrahydroisoquinolin-1-yl]benzonitrile]
[1]
  IC50: 0.42 µM
[2]
  IC50: 3.5 µM

## C#CC(=O)N1[C@@H](CC2CC2)Cc2cc(OC)ccc2[C@@H]1c1ccc(C#N)cc1 [Compound B-37]
[1]
  IC50: 0.049 µM
[2]
  IC50: > 10 µM

## C#CC(=O)N1[C@@H](COCC)Cc2cc(OC)ccc2[C@@H]1c1ccc(C#N)cc1 [Compound B-39]
[1]
  IC50: 0.195 µM
[2]
  IC50: > 10 µM

## C#CC(=O)N1[C@@H](CCCC)Cc2cc(F)ccc2[C@@H]1c1ccc(NC23CC4CC(CC(C4)C2)C3)cc1 [Compound B-40]
[1]
  IC50: 0.006 µM
[2]
  IC50: 4.52 µM

## C#CC(=O)N1[C@@H](COC)Cc2cc(OC)ccc2[C@@H]1c1ccc(NC23CC4CC(CC(C4)C2)C3)cc1 [Compound B-41]
[1]
  IC50: 0.0035 µM
[2]
  IC50: 3.88 µM

## C#CC(=O)N1[C@@H](CCCC)Cc2ccc(OC)cc2[C@@H]1c1ccc(NC23CC4CC(CC(C4)C2)C3)cc1 [Compound B-42, 1-((1S,3S)-1-(4-(((3R,5R,7R)-adamantan-1-yl)amino)phenyl)-3-butyl-7-methoxy-3,4-dihydroisoquinolin-2(1H)-yl)prop-2-yn-1-one]
[1]
  IC50: 0.0145 µM
[2]
  IC50: 6.58 µM

## C#CC(=O)N1[C@@H](CCC)Cc2cc(OC)ccc2[C@@H]1c1ccc(NC23CC4CC(CC(C4)C2)C3)cc1 [Compound B-43]
[1]
  IC50: 0.006 µM
[2]
  IC50: 4.1 µM

## C#CC(=O)N1[C@@H](CCC)Cc2cc(OC)ccc2[C@H]1c1ccc(NC23CC4CC(CC(C4)C2)C3)cc1 [Compound B-44]
[1]
  IC50: 0.054 µM
[2]
  IC50: > 1 µM

## C#CC(=O)N1[C@@H](COC)Cc2cc(OC)ccc2[C@H]1c1ccc(NC23CC4CC(CC(C4)C2)C3)cc1 [Compound B-45]
[1]
  IC50: 0.047 µM

## C#CC(=O)N1[C@@H](CC2CC2)Cc2cc(OC)ccc2[C@@H]1c1ccc(NC23CC4CC(CC(C4)C2)C3)cc1 [Compound B-50]
[1]
  IC50: 0.01 µM

## C#CC(=O)N1[C@H](c2ccc(NC34CC5CC(CC(C5)C3)C4)cc2)c2ccc(OC)cc2C[C@@H]1C1CCC1 [Compound B-51]
[1]
  IC50: 0.072 µM
[2]
  IC50: 4.9 µM
